Results reported in paper PMC7180572, “5-Alkylamino-N-phenylpyrazine-2-carboxamides: Design, Preparation, and Antimycobacterial Evaluation” (Molecules, 2020).
pIC50: −log10 of the molar value. In brackets after ≈: the same amount, converted by molar mass. Read-outs that look alike come from different tables or passages of the source.

Tests used:
[1] = system: Escherichia coli ATCC 25922, CCM 3954; assay: Antibacterial microdilution broth method (EUCAST); type: cell-based; settings: read-out: MIC EC
[2] = system: Aspergillus flavus CCM 8363; assay: Antifungal microdilution broth method (EUCAST); type: cell-based; settings: read-out: MIC AFla
[3] = system: Klebsiella pneumoniae ATCC 10031, CCM 4415; assay: Antibacterial microdilution broth method (EUCAST)
[4] = system: Acinetobacter baumanii ATCC 19606, DSM 30007; assay: Antibacterial microdilution broth method (EUCAST); type: cell-based; settings: Acinetobacter baumannii
[5] = system: Trichophyton interdigitale ATCC 9533, CCM 8377; assay: Antifungal microdilution broth method (EUCAST); type: cell-based; settings: read-out: MIC TI
[6] = system: Staphylococcus aureus methicillin resistant ATCC 43300, CCM 4750; assay: microbe, parasite or virus in culture; type: cell-based; settings: ATCC 43300 / CCM 4750 / MRSA, read-out: MIC MRSA
[7] = system: Mycobacterium aurum DSM 43999 (ATCC 23366); assay: Microdilution broth, modified Microplate Alamar Blue Assay, whole cell growth inhibition; type: cell-based; settings: Mycolicibacterium aurum, read-out: MIC Mycobacterium aurum
[8] = system: Candida tropicalis ATCC 750, CCM 8264; assay: Antifungal microdilution broth method (EUCAST); type: cell-based; settings: read-out: MIC CT
[9] = system: Mycobacterium smegmatis DSM 43465 (ATCC 607); assay: Microdilution broth, modified Microplate Alamar Blue Assay, whole cell growth inhibition; type: cell-based; settings: Mycolicibacterium smegmatis, read-out: MIC Mycobacterium smegmatis
[10] = system: Candida albicans ATCC 24433, CCM 8320; assay: Antifungal microdilution broth method (EUCAST); type: cell-based; settings: read-out: MIC CA
[11] = system: Aspergillus fumigatus ATCC 204305; assay: Antifungal microdilution broth method (EUCAST); type: cell-based; settings: read-out: MIC AF
[12] = system: Candida parapsilosis ATCC 22019, CCM 8260; assay: Antifungal microdilution broth method (EUCAST); type: cell-based; settings: Lodderomyces parapsilosis, read-out: MIC CP
[13] = system: Mycobacterium tuberculosis H37Ra ITM-M006710 (ATCC 9431); assay: Microdilution broth, modified Microplate Alamar Blue Assay, whole cell growth inhibition; type: cell-based; settings: Mycobacterium tuberculosis; in vitro, Middlebrook 7H9 broth, resazurin; read-out: MIC Mtb H37Ra
[14] = system: Enterococcus faecalis ATCC 29212, CCM 4224; assay: Antibacterial microdilution broth method (EUCAST); type: cell-based; settings: read-out: MIC EF
[15] = system: Pseudomonas aeruginosa ATCC 27853, CCM 3955; assay: Antibacterial microdilution broth method (EUCAST); type: cell-based; settings: read-out: MIC PA
[16] = system: Staphylococcus aureus spp.aureus ATCC 29213, CCM 4223; assay: Antibacterial microdilution broth method (EUCAST); type: cell-based; settings: read-out: MIC SA
[17] = system: Staphylococcus epidermidis ATCC 12228, CCM 4418; assay: Antibacterial microdilution broth method (EUCAST); type: cell-based; settings: read-out: MIC SE
HepG2 cells = assay: HepG2 cytotoxicity, CellTiter 96 (MTS) assay; type: cell-based, human; settings: for pIC50: Homo sapiens, HepG2, 24 h, read-out: HepG2 IC50; for SI, selectivity index: IC50 (HepG2)/MIC against Mtb H37Ra (in µM)
[18] = system: Candida krusei ATCC 6258, CCM 8271; assay: Antifungal microdilution broth method (EUCAST); type: cell-based; settings: Pichia kudriavzevii, read-out: MIC CK
[19] = system: Absidia corymbifera CCM 8077 (Lichtheimia corymbifera); assay: Antifungal microdilution broth method (EUCAST); type: cell-based; settings: read-out: MIC AC

SMILES | MIC ([1]; 24 h) [µM] | MIC ([1]; 48 h) [µM] | MIC ([2]; CCM8363, 24 h) [µM] | MIC ([2]; CCM8363, 48 h) [µM] | MIC KP ([3]; 24h) [µM] | MIC KP ([3]; 48h) [µM] | MIC ([4]; 24h) [µM] | MIC ([4]; 48h) [µM] | MIC ([5]; 72 h) [µM] | MIC ([5]; 120 h) [µM] | MIC ([6]; 24 h) [µM] | MIC ([6]; 48 h) [µM] | MIC [7] [µg/mL] | MIC ([8]; 24 h) [µM] | MIC ([8]; 48 h) [µM] | MIC [9] [µg/mL] | MIC ([10]; 24 h) [µM] | MIC ([10]; 48 h) [µM] | MIC ([11]; ATCC204305, 24 h) [µM] | MIC ([11]; ATCC204305, 48 h) [µM] | also measured
CCCCCCNc1cnc(C(=O)Nc2ccc(O)cc2)cn1 [Compound 3d, 5-(Hexylamino)pyrazine-N-(4-hydroxyphenyl)-2-carboxamide] | > 500 | > 500 | > 500 | > 500 | > 500 | > 500 | > 500 | > 500 | > 500 | > 500 | > 500 | > 500 | ≥ 500 | > 500 | > 500 | 250 (≈ 795 µM) | > 500 | > 500 | > 500 | > 500 | MIC ([12]; 24 h): > 500 µM; MIC ([12]; 48 h): > 500 µM; MIC [13]: 3.91 µg/mL (≈ 12.4 µM); MIC ([14]; 24 h): > 500 µM; MIC ([14]; 48 h): > 500 µM; MIC ([15]; 72 h): > 500 µM; MIC ([15]; 120 h): > 500 µM; MIC ([16]; 24 h): > 500 µM; MIC ([16]; 48 h): > 500 µM; MIC ([17]; 24 h): > 500 µM; MIC ([17]; 48 h): > 500 µM; melting point: 157.7 to 161.5 °C; pIC50 (HepG2 cells): 4.23; SI, selectivity index (HepG2 cells): 4.71; MIC ([18]; 24 h): > 500 µM; MIC ([18]; 48 h): > 500 µM; MIC ([19]; CCM8077, 24 h): > 500 µM; MIC ([19]; CCM8077, 48 h): > 500 µM
CCCCCCCNc1cnc(C(=O)Nc2ccc(O)cc2)cn1 [Compound 3e] | > 500 | > 500 | > 250 | > 250 | > 500 | > 500 | > 500 | > 500 | > 250 | > 250 | > 500 | > 500 | ≥ 500 | > 250 | > 250 | 31.2 (≈ 95.2 µM) | > 250 | > 250 | > 250 | > 250 | MIC ([12]; 24 h): > 250 µM; MIC ([12]; 48 h): > 250 µM; MIC [13]: 3.91 µg/mL (≈ 11.9 µM); MIC ([14]; 24 h): > 500 µM; MIC ([14]; 48 h): > 500 µM; MIC ([15]; 72 h): > 500 µM; MIC ([15]; 120 h): > 500 µM; MIC ([16]; 24 h): > 500 µM; MIC ([16]; 48 h): > 500 µM; MIC ([17]; 24 h): > 500 µM; MIC ([17]; 48 h): > 500 µM; melting point: 151.4 to 155.4 °C; pIC50 (HepG2 cells): 4.35; SI, selectivity index (HepG2 cells): 3.76; MIC ([18]; 24 h): > 250 µM; MIC ([18]; 48 h): > 250 µM; MIC ([19]; CCM8077, 24 h): > 250 µM; MIC ([19]; CCM8077, 48 h): > 250 µM
CCCCNc1cnc(C(=O)Nc2ccc(C)cc2)cn1 [Compound 4b, 5-(Butylamino)-N-(p-tolyl)pyrazine-2-carboxamide] | > 125 | > 125 | > 125 | > 125 | > 125 | > 125 | > 125 | > 125 | > 125 | > 125 | > 125 | > 125 | ≥ 250 | > 125 | > 125 | ≥ 250 | > 125 | > 125 | > 125 | > 125 | MIC ([12]; 24 h): > 125 µM; MIC ([12]; 48 h): > 125 µM; MIC [13]: ≥ 250 µg/mL; MIC ([14]; 24 h): > 125 µM; MIC ([14]; 48 h): > 125 µM; MIC ([15]; 72 h): > 125 µM; MIC ([15]; 120 h): > 125 µM; MIC ([16]; 24 h): > 125 µM; MIC ([16]; 48 h): > 125 µM; MIC ([17]; 24 h): > 125 µM; MIC ([17]; 48 h): > 125 µM; melting point: 162.6 to 163.6 °C; pIC50 (HepG2 cells): < 4.30; MIC ([18]; 24 h): > 125 µM; MIC ([18]; 48 h): > 125 µM; MIC ([19]; CCM8077, 24 h): > 125 µM; MIC ([19]; CCM8077, 48 h): > 125 µM
